In publication PMC8536830 (Current Biology, 2021):

Molecular target: T1, LGC-50 S335D, T348D, S353A (Caenorhabditis elegans, UniProt P41849, S335D/S353A/)
T1 construct: Plasmid: KSM: lgc-50 (cDNA, S335D, T348A, S353A); expressed in transfected cells; host or cells: Xenopus laevis oocytes injected with cRNA (probably plasmid pIH134)
Assay: Two-electrode voltage clamp, 5-HT evoked dose response, LGC-50 phosphomimic mutant
Assay type: cell-based, C. elegans
Source text: In addition to this region, we also investigated three upstream predicted phosphorylation sites. Phosphorylation of the M3/4 loop has previously been implicated in the trafficking and cell surface recycling of GABAA receptors.[23]^,[24] The first site in the M3/4 loop of LGC-50, S335, is predicted to be a cdc2 site, and T348 and S353 are predicted protein kinase C (PKC) or PKA sites (Table S2).[25]^,[26] We introduced both phosphorylation-dead alanine mutations and phosphomimic aspartate mutations into these sites to assess their effect on receptor trafficking. […]
Two-electrode voltage clamp recordings were carried out using the Robocyte2 recording system or a manual TEVC set up, using an OC-725D amplifier (Multi Channel Systems, Reutlingen, Germany) and paired with a custom-made recording chamber and agar bridges from reference and bath electrodes. […] Data was recorded using WinWCP or RoboCyte2 control software, manual data was filtered at 10 Hz.
Dose response curves were calculated from the peak current during a 10 s agonist stimulation in ND96 solution, with a 60 s ND96 wash in between doses. […] Normalized dose response data was fitted to a nonlinear curve using a four parameters variable slope and the EC50 and Hill slope was calculated. […] Kinetic measurements were calculated from a 60 s agonist perfusion. […]

T1 sequence (P41849 20-491 S335D/T348A/S353A): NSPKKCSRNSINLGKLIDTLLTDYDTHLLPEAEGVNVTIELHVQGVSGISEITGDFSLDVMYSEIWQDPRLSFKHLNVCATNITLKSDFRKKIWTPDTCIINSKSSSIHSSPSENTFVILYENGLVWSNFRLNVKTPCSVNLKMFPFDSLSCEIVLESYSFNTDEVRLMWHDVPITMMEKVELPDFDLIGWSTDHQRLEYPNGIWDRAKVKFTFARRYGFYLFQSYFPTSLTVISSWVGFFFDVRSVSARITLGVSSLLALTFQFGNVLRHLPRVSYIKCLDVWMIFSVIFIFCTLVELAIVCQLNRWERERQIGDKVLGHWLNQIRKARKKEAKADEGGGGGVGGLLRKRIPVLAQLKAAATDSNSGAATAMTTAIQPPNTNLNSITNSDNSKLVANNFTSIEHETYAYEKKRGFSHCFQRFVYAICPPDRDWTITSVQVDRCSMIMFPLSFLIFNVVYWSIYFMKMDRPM

## NCCc1c[nH]c2ccc(O)cc12 [5-HT, serotonin]
  EC50: 720 nM
